Results: a melting point compilation (Tetko et al.; mined from patent text by program, amines drawn as free bases though some values may be those of a salt)
Starred links: 1 amine or outer side, 2 acyl side, 3 side chain; linkers in the order of their positions; H or OH if unused. Residues, ends and D or L forms follow the SMILES beside them. *: point of attachment. Glutaryl = O=C(CCCC(=O)[*:2])[*:1]; NHPr = CCCN*

SMILES | melting point
Nn1c(C2CC2)cc(-c2ccc(C(F)(F)F)cc2)cc1=O | 132 °C
CC1=Nc2ccccc2CC(c2ccncc2)N1C (stereo unspecified) | 159 to 161 °C
CC(C)Nc1nc(Cl)nc(Cl)c1[N+](=O)[O-] | 65 °C
Nc1ccc(CC(NC(=O)C(c2ccccc2)c2ccccc2)c2ccccc2)cc1 (stereo unspecified) | 161 to 163 °C
O=c1[nH]c2ccccc2cc1-c1nnn[nH]1 | 301 to 303 °C
CCCCCCCCCNC(=O)CCCC | 29 to 31 °C
Cn1ncnc1COc1nn2c(-c3ccc(F)cc3F)nnc2cc1C1(C)CCCCC1 | 196 °C
CS(=O)(=O)N(c1ccc(C#Cc2cnn3c(C(F)(F)F)cc(-c4ccc(C(F)(F)F)cc4)nc23)cn1)S(C)(=O)=O | 250 to 251 °C
CN(Cc1cc(C(F)(F)F)cc(C(F)(F)F)c1)C(=O)c1oc(=O)c2ccc(Cl)cc2c1-c1ccccc1 | 170 to 171 °C
O=C1NCCC[C@@H]1NS(=O)(=O)c1ccc(C(F)(F)F)cc1 | 181 to 183 °C
CC(C)(C)C(=O)Nc1nc(O)c2c(n1)NCC(CO)C2 (stereo unspecified) | 236 to 238 °C
CC(C)C(=O)N[C@@H](CSC(=O)c1ccccc1)C(=O)NCCSC(=O)C(C)(C)C | 123 to 124 °C
FC(F)(F)c1ccc(Cl)cc1CN1CCNc2ncc(-c3ccnc(N4CCNCC4)c3)cc21 | 189 °C
O=C1NC(=O)C(Cc2ccc(OCCON=Cc3ccc4ccccc4c3)cc2)S1 (stereo unspecified) | 108 to 111 °C
Cc1cnc2[nH]cc(/C=C3\N=C(N4CCCCCC4)NC3=O)c2c1 | 324 to 326 °C
Cn1ncnc1COc1nn2c(-c3ccccc3F)nncc2c1-c1ccccc1F | 169 °C
COc1cc(Nc2c(C#N)cnc3cc4cc(OC)c(OCCCl)cc4cc23)c(Cl)cc1F | 193 to 204 °C
O=c1c(Br)c(N2CCOCC2)oc2ccccc12 | 145 to 146 °C
CCN(CC)CCOc1ccc(Nc2ncc3c(n2)N(C)C(=O)N(c2ccccc2C)C3)cc1 | 132 °C
C(=CCN(c1ccccc1)c1cccc2ccccc12)CN(c1ccccc1)c1cccc2ccccc12 | 140 to 142 °C
CCCCCCCCS(=O)(=O)c1ccc(CC(COC(C)=O)(COC(C)=O)NC(C)=O)cc1 | 98 to 100 °C
COc1ccc(OC)c(Cc2nc3ccc(C)cc3c(=O)[nH]2)c1 | 188 to 189 °C
O=[N+]([O-])c1cc(OCCCl)ccc1Cl | 46 to 48 °C
CC(C)Oc1cc(-n2c(=O)cc(C(F)(F)F)n(C)c2=O)c(F)cc1Cl | 90 to 93 °C
CCCNC1=NS(=O)(=O)c2sc(C)cc2N1 | 263 to 264 °C
CN1N=C(c2ccc(F)cc2)c2ccc(Cl)cc2CS1(=O)=O | 250 to 251 °C

SMILES | melting point
CN(C)c1ccc(F)c(C#N)c1 | 72 to 72.5 °C
Cc1c(CCO)c(=O)oc2c(O)c(O)ccc12 | 221 to 222 °C
CONS(=O)(=O)c1ccc(C(F)(F)F)cc1 | 96 to 97 °C
CC(=O)O[C@@H]1CC(c2ccccc2)(c2ccccc2)[C@@H]2CN(Cc3ccccc3)C[C@@H]2C1=O (racemic) | < 40 °C
O=C1NC(=C2CCC2)Sc2ccccc21 | 147 to 149 °C
COc1ccc(F)cc1C(C)(C)CC(O)(CN1CCSc2ccccc21)C(F)(F)F (stereo unspecified) | 103 to 104 °C
O=C(O)c1cccc(-c2cccc3nc(Cc4cccc(C(F)(F)F)c4)oc23)c1 | 175 to 176 °C
CC(C)(c1ccccc1)n1nnc(-c2ccccc2-c2ccc(CO)cc2)n1 | 117 to 120 °C
CCN1C(=O)Cc2cc(OC(=O)CCl)ccc21 | 53 to 57 °C
C[C@@H]1C[C@H](OC(=O)C(C)(C)Oc2ccc(C(=O)c3ccc(Cl)cc3)cc2)CC(C)(C)C1 (relative stereo) | 65 °C
CCN(c1ccc(C#N)cc1)S(=O)(=O)c1ccc(C)cc1 | 85.4 to 86.6 °C
O=P(O)(O)C(F)P(=O)(O)O | 162 to 163 °C
OC1Cn2cccc2Sc2ccccc21 (stereo unspecified) | 101 to 102 °C
CC1(C)OC(=O)c2c(cccc2-c2ccccc2)O1 | 158 to 163 °C
CC(C)Oc1cc(CCCOc2nn(Cc3ccccc3)cc2CC(=O)O)n(Cc2ccc(Cl)cc2OC(C)C)n1 | 113 to 115 °C
CC(=O)OCC1CC(OC(C)=O)C(n2cc(C(I)=CI)c(=O)[nH]c2=O)O1 (stereo unspecified) | 75 to 77 °C
CNC(=O)c1cccc(Cl)c1Nc1nc(Nc2ccc3c(c2)CCCC(=O)N3CCOC)ncc1Cl | 136 to 157 °C
CON=C(c1cc(C)no1)c1ccccc1COc1cc(C)ccc1C | 107 to 108 °C
O=C1CNC(=O)C(CCCCNC(=O)OCc2ccccc2)N1 (stereo unspecified) | 210 °C
O=C(O)c1cc(C(F)(F)F)cc(F)c1F | 94 to 96 °C
Nc1cccc2c1OCC2 | 70 to 72 °C
CC(C)=CCOC(C)C1CCC2=C3C=CC4C(C)(C)C(O)CCC4(C)C3CCC21C (stereo unspecified) | 171 to 174 °C
N#CC1CN1C(=O)c1ccc(Cl)cc1Cl (stereo unspecified) | 95 to 97 °C
CC(=O)CC(=O)Nc1ccc(SC(F)(F)F)cc1 | 120 to 122 °C
COc1ccccc1[C@H](c1cccc2ccccc12)[C@@](C)(C#N)C(=O)N1CC=C(c2c[nH]c3ccccc23)CC1 | 229 to 231 °C
COC(=O)[C@]12CN(Cc3ccccc3)C[C@@H]1C(=O)CC[C@@]2(C)c1ccccc1 (racemic) | 115 °C

SMILES | melting point
CC(=O)c1c(C(=O)N(C)C)[nH]c2ccc(Cl)cc12 | 150 to 155 °C
CNC(=O)C(=O)CCCCCCSc1nc2ccccc2s1 | 83 to 84 °C
CCOC(=O)c1cn2c(cnc3ccccc32)n1 | 184 to 187 °C
CCOC(=O)C1=C(Cl)/C(=N/OS(C)(=O)=O)CC(c2ccc(Cl)cc2F)N1 (stereo unspecified) | 63 to 64 °C
Cc1cc(=O)[nH]c2ccc(C(O)(C(F)(F)F)C(F)(F)F)cc12 | 157 to 158 °C
O=c1scc(-c2ccc(CCO)cc2)s1 | 92 to 94 °C
COc1cccc(C(C)n2nc(C(=O)O)c3c2-c2ccc(OCc4cncnc4)cc2CC3)c1 (stereo unspecified) | 200 to 201 °C
O=c1nc(-c2cccc(SCCCc3ccccc3)n2)sc2ccccc12 | 192 to 194 °C
COc1ccc(Cl)cc1N1C(=O)CON(C)C1=S | 189 to 191 °C
ON=C(CCC1CCN(Cc2ccccc2)CC1)c1ccc(N2CCCC2)cc1 | 153 to 158 °C
CCOc1cc(OCC)nc(N2CCN(Cc3ccc(CNC(C)=O)cc3)CC2)n1 | 119 to 120 °C
NC(=O)N(c1ccc(-c2c(CCO)sc3ncnc(N)c23)cc1)c1cccc(C(F)(F)F)c1 | 155 to 158 °C
Cc1ccc(S(=O)(=O)OC(C)(c2ccccc2)C(F)(F)F)cc1 (stereo unspecified) | 102 °C
Cc1ccccc1Sc1cccc(CC(=O)O)c1O | 96 to 97 °C
O=C(Cl)c1ccc(Cl)cc1Sc1ccccc1 | 94 to 96 °C
C[C@@H](Cn1ncc2ccc(O)c(C=O)c21)NC(=O)OCc1ccccc1 | 135 to 137 °C
O=C(O)C(=O)c1csc2ccccc12 | 92 to 93 °C
ON=Cc1c[nH]cc1-c1cccc(Cl)c1Cl | 158 to 160 °C
CC(C)(O)Cc1ccc(NC(=O)OCc2ccccc2)cc1 | 117 to 118 °C
CC(C)(C)c1cc(C(=O)Nc2nc(C(=O)O)cs2)cc(C(C)(C)C)c1O | 291 to 293 °C
CCOC(=O)CCCOc1ccc(C2=NNC(=O)CC2)cc1Cl | 109 to 110 °C
CCOC(=O)C(=O)Nc1cc(Cl)c(Cl)c(Cl)c1[N+](=O)[O-] | 84 °C
CCOC(=O)CCCCOc1ccc([N+](=O)[O-])c(C=C2NC(=O)NC2=O)c1 | 127 to 129 °C
CCOC(=O)COc1cccc2c1CCc1sc(S(=O)(=O)C(c3ccccc3)c3ccccc3)nc1-2 | 184 to 187 °C
COCCOc1ccc2c(C(c3cccc(NC(=O)OCc4ccccc4)c3C)C(C)[N+](=O)[O-])c[nH]c2c1 (stereo unspecified) | 140 °C
CC(SC1COC(c2ccc(C(=O)Nc3ccc(SC(F)(F)F)cc3)cc2)OC1)C(O)(Cn1cncn1)c1ccc(F)cc1F (stereo unspecified) | 95 °C

SMILES | melting point
NC(=O)CN1C(=O)OCc2cc(Br)ccc21 | 253 to 254 °C
CN(C)Cc1cccc(-c2cc3c(=O)n(NS(C)(=O)=O)c(=O)[nH]c3cc2C(F)(F)F)c1 | 346 to 348 °C
O=C(C1CN(S(=O)(=O)c2ccc3cc(Br)ccc3c2)CCN1C(=O)C1CCN(c2ccncc2)CC1)N1CCOCC1 (stereo unspecified) | 235 to 237 °C
COc1c(Cl)ccc(-c2cc(N)c(OC(F)F)c(Cl)n2)c1F | 152 to 154 °C
Sc1ncc(CCCCc2ccccc2)[nH]1 | 168 to 169 °C
O=C(c1cocc1C(=O)N1CCCCC1)N1CCCCC1 | 180 to 183 °C
OCc1cnoc1-c1ccc(F)c(Cl)c1 | 106 to 107 °C
COc1ccc(-c2nc(CO)c[nH]2)cc1OC1CCCC1 | 188 to 190 °C
CCCNC(=O)C1CCCN1C(=O)C(C)NC(=O)C(C)NC(=O)CCCC(=O)O (stereo not drawn) (Glutaryl-Ala-Ala-Pro-NHPr; configuration not given here) | 131 to 134 °C
NC(=S)NN=Cc1ncc([N+](=O)[O-])n1Cc1ccccc1 | 193 to 196 °C
CCOC(=O)c1nc2sc(Br)c([N+](=O)[O-])c2c(=O)[nH]1 | 284 °C
Cc1cc(=O)oc2nc(N(C)C)ccc12 | 157 to 160 °C
O=[N+]([O-])c1c(N2CCc3ccccc3CC2)nc2c(c1O)CCCCC2 | > 200 °C
CC(C)(CF)C(O)C(Oc1ccc(Cl)cc1)n1cncn1 (stereo unspecified) | 103 to 112 °C
O=CNc1ccc(-c2cc[nH]n2)cc1 | 139 to 141 °C
CCCCCCCCOc1cc(-n2c(=O)cc(C(F)(F)F)n(C)c2=O)c(F)cc1Cl | 60 to 63 °C
CC(C)N=CCCC1(C(N)=O)c2ccccc2-c2ccccc21 | 149 to 155 °C
CSc1ncc(N(C)C(=O)C(C)(C)c2cc(C(F)(F)F)cc(C(F)(F)F)c2)c(-c2ccccc2C)n1 | 124 to 125 °C
C#Cc1ccc2ccc(OC(CC)C(=O)NC(C)(C)CO)cc2c1 (stereo unspecified) | 81 to 82 °C
O=C(NCCN1CCOc2ccc(O)cc21)c1ccco1 | 59 to 62 °C
Cc1c(-c2cccc(F)c2)nc2n1CCc1ccccc1C2OC1CCN(C)CC1 (stereo unspecified) | 132 °C
CC(=O)N[C@H]1CC[C@H](Nc2nccc(-n3nnc4ccccc43)n2)CC1 | 287 to 288 °C
CCCCCCCCCCCOCCCN=C=O | 72 to 78 °C
